Assay results published in patent US20030165575A1, “Methods and compositions for treatment and diagnosis of alzheimer disease and other disorders” (Research Foundation for Mental Hygeine, Inc., priority 1994, published 2003).

Key:
PP-2B = target: T1, PP-2B (Bos taurus, UniProt P48452); test: Effect of effectors on dephosphorylation of AD P-tau by PP-2B (immunoblot); assay type: biochemical, bovine; settings: for Activity of PP-2B towards AD P-tau with divalent cation in the presence of Ca2+ and calmodulin: 1.0 mM CaCl2, 1.0 μM calmodulin plus 1.0 mM NiCl2, 1.0 mM MnCl2 or 10 mM MgCl2; for Activity of PP-2B towards AD P-tau with divalent cation in the presence of Ca2+ and calmodulin / Magnitude of dephosphorylation of AD P-tau by PP-2B with the cation alone compared to inclusion of Ca2+ and calmodulin: Tau-1 immunoblot; for Magnitude of dephosphorylation of AD P-tau by PP-2B with the cation alone compared to inclusion of Ca2+ and calmodulin: 1.0 mM MnCl2 or 1.0 mM NiCl2 alone; for Concentration of metal ion for maximal dephosphorylation of AD P-tau by PP-2B / Concentration of metal ion that activated the dephosphorylation of AD P-tau by PP-2B: in the presence of 1.0 mM Ca2+ and 1.0 μM calmodulin
T1 construct: PP-2B (holoezyme) was purified from bovine brain according to the method of Sharma et al; from tissue; host or cells: bovine brain
Method: Rabbit skeletal muscle PP-1 was purchased from Upstate Bioteehnology Inc., Lake Placid, N.Y. Rat brain PP-2A1 and PP-2A2 were kindly provided by Dr. S. Jaspers of University of Massachusetts. […] Phosphorylase and calmodulin were purchased from Sigma, St. Louis, Mo. […] Alkaline phosphatase-conjugated goat anti-mouse and anti-rabbit IgG were purchased from Bio-Rad, Hercules, Calif.
Unless otherwise stated, dephosphorylation of AD P-tau was carried out at 30° C. in 50 mM Tris, pH 7.0, 10 mM β-mecaptoethanol, 0.1 mg/ml BSA, 50 μg/ml AD P-tau and PP-1 PP-2A or PP-2B. The reaction was started by addition of enzyme and stopped by addition of 5 volumes of cold acetone. The precipitated protein samples were dissolved in sodium dodecyl sulfate-polyacrylamide gel electrophoresis (SDS-PAGE) sample buffer and heated at 95° C. for 4 min, followed by 10% SDS-PAGE. […] Antiserum 92e is a phosphorylation-independent antibody which recognizes both AD P-tau and normal tau.

PP-2C = PP-2C activity with [32P]phosphorylase kinase as substrate; assay type: biochemical, bovine; settings: no activity detected in the absence of Mg2+ or Mn2+
Method: (§1) For PP-2B and PP-2C activities, MnCl2 was substituted by 1.0 mM CaCl2 and 10 μM calmodulin, and 10 mM MgCl2, respectively.

PP-2A2 [1] = target: T2, PP-2A2 (Rattus norvegicus, UniProt P63331); settings: data not shown
T2 sequence (P63331 whole entry): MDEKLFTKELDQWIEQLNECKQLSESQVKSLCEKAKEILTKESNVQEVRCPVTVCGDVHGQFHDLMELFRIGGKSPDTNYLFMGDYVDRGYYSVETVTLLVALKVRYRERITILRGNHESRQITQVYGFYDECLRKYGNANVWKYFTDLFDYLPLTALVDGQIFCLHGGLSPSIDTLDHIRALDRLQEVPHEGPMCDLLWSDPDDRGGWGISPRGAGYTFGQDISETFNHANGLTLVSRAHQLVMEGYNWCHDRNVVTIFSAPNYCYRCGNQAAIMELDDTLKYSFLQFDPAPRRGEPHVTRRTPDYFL
T2 sequence (Q5XI34 1-589 partner): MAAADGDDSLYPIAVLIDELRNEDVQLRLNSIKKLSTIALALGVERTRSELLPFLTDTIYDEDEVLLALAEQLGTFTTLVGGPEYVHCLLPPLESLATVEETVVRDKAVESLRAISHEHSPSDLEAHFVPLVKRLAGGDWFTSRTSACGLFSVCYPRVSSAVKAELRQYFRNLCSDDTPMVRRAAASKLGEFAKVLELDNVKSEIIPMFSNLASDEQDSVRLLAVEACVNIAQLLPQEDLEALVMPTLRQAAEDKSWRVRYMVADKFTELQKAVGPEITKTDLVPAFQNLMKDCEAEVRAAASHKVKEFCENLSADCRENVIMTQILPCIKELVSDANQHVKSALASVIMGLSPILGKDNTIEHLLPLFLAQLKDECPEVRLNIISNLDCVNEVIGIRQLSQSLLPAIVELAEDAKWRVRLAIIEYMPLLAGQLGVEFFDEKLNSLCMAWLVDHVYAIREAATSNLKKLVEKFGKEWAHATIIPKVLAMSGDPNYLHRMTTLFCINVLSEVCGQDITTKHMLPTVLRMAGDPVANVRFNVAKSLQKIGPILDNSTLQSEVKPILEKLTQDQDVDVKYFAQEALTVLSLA

PP-2A = test: Effect of effectors on dephosphorylation of AD P-tau by PP-2A (immunoblot); assay type: biochemical, rat
Text: (§2) Phosphorylase, calmodulin, and poly-L-lysine (molecular weight 4,000-15,000) were purchased from Sigma, St. Louis, Mo. […] L. 1. Binder, University of Alabama, Birmingham, Ala.; A. Van de Voorde, Innogenetics, Industriepark Zwijinaarde, Belgium; and S. Greenberg, Burke Medical Research Institute, White Plains, N.Y., respectively. SMI33, SMI31, SMI34, goat anti-mouse IgG and peroxidase-anti-peroxidase complex were purchased from Sternberger Monoclonals Inc., Baltimore, Md. Alkaline phosphatase-conjugated goat anti-mouse and anti-rabbit IgG were purchased from Bio-Rad, Hercules, Calif.
(§3) In some experiments, Mn^2+ in the reaction mixture was replaced by other effectors (see Figure legends). In the reaction mixture for PP-2B, MnCl2 was substituted with-1.0 mM NiCl2, 1.0 mM CaCl2 and 1.0 μM calmodulin. The reaction was started by the addition of enzymes. After appropriate incubation times (see Figure legends), reactions were stopped by the addition of 5 volumes of cold acetone to precipitate proteins. Dephosphorylation was monitored by immunoblotting with the phosphorylation-dependent antibodies described below.
(§4) Res. Commun. […] Antibody AT8 was used at a concentration of 2.0 μg/ml. […] The intensity of immunostaining of-some blots with Tau-1 was scanned by using a Shimadzu dual-wavelength flying-spot scanner.

PP-1 [2] = test: PP-1 activity with [32P]phosphorylase kinase as substrate; assay type: biochemical, rabbit; settings: 1.0 mM Mn2+ or 10 mM Mg2+
Method: as §1

PP-2A2 [3] = target: T2, PP-2A2; test: Effect of Mn2+, Mg2+ and polylysine on dephosphorylation of AD P-tau by PP-2A2; assay type: biochemical; set-up: PP-2A1 and PP-2A2 were purified from rat brain basically as described by Cohen et al; tissue gift of Dr. S. Jaspers, University of Massachusetts; host or cells: rat brain; settings: 2.0 mM MnCl2, 2.0 mM MgCl2 or 10 μM polylysine versus 1.0 mM EDTA; Tau-1 immunoblot
Text: as §2, §3, §4

PP-2A1 [4] = target: T3, PP-2A1 (Rattus norvegicus, UniProt P63331); test: PP-2A1 activity with [32P]phosphorylase as substrate; assay type: biochemical; settings: data not shown
T3 construct: PP-2A1 and PP-2A2 were purified from rat brain basically as described by Cohen et al; tissue gift of Dr. S. Jaspers, University of Massachusetts; host or cells: rat brain
T3 sequence (P63331 whole entry): as the sequence (P63331 whole entry) above
T3 sequence (Q5XI34 1-589 partner): as the sequence (Q5XI34 1-589 partner) above
T3 sequence (P36876 whole entry partner): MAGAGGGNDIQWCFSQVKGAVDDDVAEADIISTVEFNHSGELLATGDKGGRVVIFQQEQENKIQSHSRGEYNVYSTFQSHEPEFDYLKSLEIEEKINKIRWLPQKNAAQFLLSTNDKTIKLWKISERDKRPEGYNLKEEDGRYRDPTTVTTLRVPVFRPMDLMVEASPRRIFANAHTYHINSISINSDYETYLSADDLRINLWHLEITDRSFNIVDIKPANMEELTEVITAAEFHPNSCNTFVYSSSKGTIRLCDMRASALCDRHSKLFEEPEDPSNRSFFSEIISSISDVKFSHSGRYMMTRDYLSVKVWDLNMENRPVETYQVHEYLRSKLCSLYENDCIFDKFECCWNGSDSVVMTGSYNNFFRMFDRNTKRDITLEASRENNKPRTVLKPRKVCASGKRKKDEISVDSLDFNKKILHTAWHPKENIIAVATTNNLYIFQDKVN

PP-2A1 [5] = target: T3, PP-2A1; test: Effect of Mn2+, Mg2+ and polylysine on dephosphorylation of AD P-tau by PP-2A1; assay type: biochemical; settings: 2.0 mM MnCl2, 2.0 mM MgCl2 or 10 μM polylysine versus 1.0 mM EDTA; Tau-1 immunoblot
Text: as §2, §3, §4

PP-1 [6] = test: Effect of effectors on dephosphorylation of AD P-tau by PP-1 (immunoblot); assay type: biochemical, rabbit; settings: for Effect on dephosphorylation of AD P-tau by PP-1: 1.0 mM Mn2+ or 10 mM Mg2+ versus 1.0 mM EDTA, PHF-1 immunoblot (Ser-396)
Method: Unless otherwise stated, dephosphorylation of AD P-tau was carried out at 30° C. in 50 mM Tris, pH 7.0, 10 mM β-mecaptoethanol, 0.1 mg/ml BSA, 50 μg/ml AD P-tau and PP-1, PP-2B or PP-2C. In some experiments, several effectors were added in the reaction mixture (see Results section). The reaction was started by addition of the enzyme. After appropriate incubation times (see Figure legends), reactions were stopped by addition of 5 volumes of cold acetone to precipitate proteins. The precipitated protein samples were dissolved in SDS-PAGE sample buffer (60 mM Tris-HCl, […], 3% SDS, 5% β-mercaptoethanol, 10% glycerol and 0.05% bromophenol blue) and heated at 95° C. for 4 min, followed by 10% SDS-PAGE.

Compound	Effect on AD P-tau dephosphorylation by PP-2B (PP-2B)	Activity of PP-2B towards AD P-tau with divalent cation in the presence of Ca2+ and calmodulin (PP-2B)	Magnitude of dephosphorylation of AD P-tau by PP-2B with the cation alone compared to inclusion of Ca2+ and calmodulin (PP-2B)	Concentration of metal ion for maximal dephosphorylation of AD P-tau by PP-2B (PP-2B)	Concentration of metal ion that activated the dephosphorylation of AD P-tau by PP-2B (PP-2B)	Metal dependence of PP-2C activity with [32P]phosphorylase kinase as substrate (PP-2C)	Effect on PP-1 activity with [32P]phosphorylase kinase as substrate (PP-1 [2])	Effect on activity of PP-2A2 towards AD P-tau (PP-2A2 [3])	Effect on PP-2A1 activity with [32P]phosphorylase as substrate (PP-2A1 [4])	Effect on activity of PP-2A1 towards AD P-tau (PP-2A1 [5])	Effect on dephosphorylation of AD P-tau by PP-1 (PP-1 [6])	other results
[Ni+2] [Ni^2+]	↑ ↑	highest activity	lower	100 µM	10 FM	–	–	–	–	–	–	–
[Mn+2] [Mn^2+, manganese]	↑ ↑	lower	lower	100 µM	10 FM	dependent	activated	markedly stimulated	almost no effect	markedly stimulated	strongly activated	Effect on PP-2A2 activity with [32P]phosphorylase as substrate (PP-2A2 [1]): stimulated PP-2A2 much more strongly than polylysine did; Effect on AD P-tau dephosphorylation by PP-2A (PP-2A): ↑ ↑; Effect on AD P-tau dephosphorylation by PP-1 (PP-1 [6]): ↑ ↑; Concentration at which activation of AD P-tau dephosphorylation by PP-1 reached maximum (PP-1 [6]; data not shown): about 100 μM; Concentration at which activation of AD P-tau dephosphorylation by PP-1 was observed (PP-1 [6]; data not shown): 10 µM
C=C1[C@@H](O)[C@@H]2O[C@]3(CC[C@H](/C=C/[C@@H](C)[C@@H]4CC(C)=C[C@@]5(O[C@H](C[C@@](C)(O)C(=O)O)CC[C@H]5O)O4)O3)CC[C@H]2O[C@@H]1[C@@H](O)C[C@H](C)[C@H]1O[C@@]2(CCCCO2)CC[C@H]1C [okadaic acid, reference compound]	–	–	–	–	–	–	–	–	–	–	–	Unmasking of Tau-1 epitope of AD P-tau by PP-2A in the presence of the inhibitor (PP-2A; 1.0 μM okadaic acid, 5.0 U/ml PP-2A2, 30° C., 60 min): did not unmask Tau-1 epitope
poly-L-lysine [Polylysine]	–	–	–	–	–	–	–	only slightly activated	slightly stimulated	strongly activated	–	–
[Mg+2] [Mg^2+, reference compound]	–	lower	–	–	–	dependent	inhibited	no detectable effect	–	no detectable effect	inhibited	–
[Ca+2] [Ca^2+]	–	–	–	–	–	–	–	–	–	–	–	Dephosphorylation of tau by PP-2B in the presence of Ca2+ and calmodulin alone (PP-2B; 1.0 mM CaCl2 and 1.0 μM calmodulin, no other cation): no apparent dephosphorylation
